Source: ChEMBL document CHEMBL1201862, “PubChem BioAssay data set” (2004)
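Test compounds were applied to cells in 96-well plates for 48 hours at 5 doses. GI50 is the concentration that inhibits growth by half.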 Calls of active or inactive are those of the source. Cut-off read from the data, not from the text of the source: active = GI50 up to about 1.1 µM and inactive = higher.

Key:
Assay in all cases: inhibition of tumour cell growth, NCI panel, 48 h
[1] = test system: SW-620
[2] = test system: RXF 393
[3] = test system: CAKI-1
[4] = test system: T47D
[5] = test system: LOX IMVI
[6] = test system: SK-MEL-2
[7] = test system: HCC 2998
[8] = test system: EKVX
[9] = test system: U-251
[10] = test system: HOP-92
[11] = test system: M14
[12] = test system: UACC-257
[13] = test system: NCI-H460
[14] = test system: Malme-3M
[15] = test system: DU-145
[16] = test system: MDA-MB-231
[17] = test system: SK-OV-3
[18] = test system: K562
[19] = test system: SF-295
[20] = test system: SF-268
[21] = test system: TK-10
[22] = test system: NCI/ADR-RES
[23] = test system: NCI-H226
[24] = test system: MCF7
[25] = test system: MDA-MB-435
[26] = test system: PC-3
[27] = test system: A498
[28] = test system: SK-MEL-28
[29] = test system: UO-31
[30] = test system: HOP-62
[31] = test system: COLO 205
[32] = test system: HL-60
[33] = test system: BT-549
[34] = test system: Hs-578T
[35] = test system: A549
[36] = test system: HCT-116
[37] = test system: SK-MEL-5
[38] = test system: OVCAR-3
[39] = test system: HT-29
[40] = test system: 786-0
[41] = test system: NCI-H23
[42] = test system: MOLT-4
[43] = test system: OVCAR-5
[44] = test system: MDA-N
[45] = test system: NCI-H522
[46] = test system: ACHN
[47] = test system: UACC-62
[48] = test system: HCT-15
[49] = test system: OVCAR-8
[50] = test system: IGROV-1
[51] = test system: SF-539
[52] = test system: CCRF-CEM
[53] = test system: SN12C
[54] = test system: RPMI-8226
[55] = test system: SNB-75
[56] = test system: OVCAR-4
[57] = test system: SR
[58] = test system: KM12
[59] = test system: SNB-19

## O=C(O)c1cc(=O)c2c(OCC(O)COc3cccc4oc(C(=O)O)cc(=O)c34)cccc2o1
[1]
  GI50: > 83000 nM (inactive)
[2]
  GI50: > 100000 nM (inactive)
[3]
  GI50: > 100000 nM (inactive)
[4]
  GI50: > 100000 nM (inactive)
[5]
  GI50: > 61400 nM (inactive)
[6]
  GI50: > 56400 nM (inactive)
[7]
  GI50: > 100000 nM (inactive)
[8]
  GI50: > 96600 nM (inactive)
[9]
  GI50: > 75200 nM (inactive)
[10]
  GI50: > 63800 nM (inactive)
[11]
  GI50: > 88100 nM (inactive)
[12]
  GI50: > 80400 nM (inactive)
[13]
  GI50: > 100000 nM (inactive)
[14]
  GI50: > 75300 nM (inactive)
[15]
  GI50: > 100000 nM (inactive)
[16]
  GI50: > 81100 nM (inactive)
[17]
  GI50: > 72900 nM (inactive)
[18]
  GI50: > 90200 nM (inactive)
[19]
  GI50: > 95500 nM (inactive)
[20]
  GI50: > 100000 nM (inactive)
[21]
  GI50: > 100000 nM (inactive)
[22]
  GI50: > 100000 nM (inactive)
[23]
  GI50: > 100000 nM (inactive)
[24]
  GI50: > 85100 nM (inactive)
[25]
  GI50: > 67500 nM (inactive)
[26]
  GI50: > 100000 nM (inactive)
[27]
  GI50: > 59000 nM (inactive)
[28]
  GI50: > 100000 nM (inactive)
[29]
  GI50: > 100000 nM (inactive)
[30]
  GI50: > 91200 nM (inactive)
[31]
  GI50: > 68400 nM (inactive)
[32]
  GI50: > 100000 nM (inactive)
[33]
  GI50: > 100000 nM (inactive)
[34]
  GI50: > 72400 nM (inactive)
[35]
  GI50: > 84300 nM (inactive)
[36]
  GI50: > 74800 nM (inactive)
[37]
  GI50: > 65900 nM (inactive)
[38]
  GI50: > 100000 nM (inactive)
[39]
  GI50: > 75700 nM (inactive)
[40]
  GI50: > 100000 nM (inactive)
[41]
  GI50: > 84300 nM (inactive)
[42]
  GI50: > 87700 nM (inactive)
[43]
  GI50: > 84300 nM (inactive)
[44]
  GI50: > 71800 nM (inactive)
[45]
  GI50: > 56800 nM (inactive)
[46]
  GI50: > 100000 nM (inactive)
[47]
  GI50: > 68100 nM (inactive)
[48]
  GI50: > 100000 nM
[49]
  GI50: 99500 nM (inactive)
[50]
  GI50: > 60500 nM (inactive)
[51]
  GI50: 98200 nM (inactive)
[52]
  GI50: > 71000 nM (inactive)
[53]
  GI50: > 100000 nM (inactive)
[54]
  GI50: > 70100 nM (inactive)
[55]
  GI50: > 61000 nM (inactive)
[56]
  GI50: > 100000 nM (inactive)
[57]
  GI50: > 81800 nM (inactive)
[58]
  GI50: > 85900 nM (inactive)
[59]
  GI50: > 100000 nM (inactive)

## CC(=O)O[C@H]1C[C@@H](O[C@H]2[C@@H](O)C[C@H](O[C@H]3[C@@H](O)C[C@H](O[C@H]4CC[C@@]5(C)[C@H](CC[C@@H]6[C@@H]5C[C@@H](O)[C@]5(C)[C@@H](C7=CC(=O)OC7)CC[C@]65O)C4)O[C@@H]3C)O[C@@H]2C)O[C@H](C)[C@H]1O.CC(=O)O[C@H]1[C@@H](O)C[C@@H](O[C@H]2[C@@H](O)C[C@H](O[C@H]3[C@@H](O)C[C@H](O[C@H]4CC[C@@]5(C)[C@H](CC[C@@H]6[C@@H]5C[C@@H](O)[C@]5(C)[C@@H](C7=CC(=O)OC7)CC[C@]65O)C4)O[C@@H]3C)O[C@@H]2C)O[C@@H]1C
[1]
  GI50: 43.5 nM (active)
[2]
  GI50: 27.9 nM (active)
[3]
  GI50: 30.8 nM (active)
[4]
  GI50: 45.5 nM (active)
[5]
  GI50: 31.3 nM (active)
[6]
  GI50: 67.9 nM (active)
[7]
  GI50: 104 nM (active)
[8]
  GI50: 17.5 nM (active)
[9]
  GI50: 30.2 nM (active)
[10]
  GI50: 56.1 nM (active)
[11]
  GI50: 63.7 nM (active)
[12]
  GI50: 54.1 nM (active)
[13]
  GI50: 14.8 nM (active)
[14]
  GI50: 23.6 nM (active)
[15]
  GI50: 19.2 nM (active)
[16]
  GI50: 162 nM (active)
[17]
  GI50: 38.5 nM (active)
[18]
  GI50: 29.1 nM (active)
[19]
  GI50: 29.9 nM (active)
[20]
  GI50: 23.6 nM (active)
[21]
  GI50: 29.9 nM (active)
[22]
  GI50: 23.8 nM (active)
[23]
  GI50: 50.8 nM (active)
[24]
  GI50: 41.5 nM (active)
[25]
  GI50: 44.3 nM (active)
[26]
  GI50: 32.2 nM (active)
[27]
  GI50: 38.6 nM (active)
[28]
  GI50: 129 nM (active)
[29]
  GI50: 48.6 nM (active)
[30]
  GI50: 33.6 nM (active)
[31]
  GI50: 47.2 nM (active)
[32]
  GI50: 38.2 nM (active)
[33]
  GI50: 42.5 nM (active)
[34]
  GI50: 25.1 nM (active)
[35]
  GI50: 11.9 nM (active)
[36]
  GI50: 26.2 nM (active)
[37]
  GI50: 29.6 nM (active)
[38]
  GI50: 11.9 nM (active)
[39]
  GI50: 27.8 nM (active)
[40]
  GI50: 22.3 nM (active)
[41]
  GI50: 11.4 nM (active)
[42]
  GI50: 16.7 nM (active)
[43]
  GI50: 33 nM (active)
[44]
  GI50: 40.2 nM (active)
[45]
  GI50: < 10 nM (active)
[46]
  GI50: 13.6 nM (active)
[47]
  GI50: 38.7 nM (active)
[48]
  GI50: 30.8 nM
[49]
  GI50: 37.8 nM (active)
[50]
  GI50: 35.4 nM (active)
[51]
  GI50: 31.5 nM (active)
[52]
  GI50: 617 nM (active)
[53]
  GI50: 42.3 nM (active)
[54]
  GI50: 39.5 nM (active)
[55]
  GI50: 48.3 nM (active)
[56]
  GI50: 15.3 nM (active)
[57]
  GI50: 44.3 nM (active)
[58]
  GI50: 32.4 nM (active)
[59]
  GI50: 63.7 nM (active)
